In brackets after ≈: the same amount, converted by molar mass. Several values for one entry are separate records, joined by “and”; a condition that tells them apart may be missing. Equal entries are not always repeated.
What was measured:
[1] = target: T1, AcrB (Escherichia coli, UniProt P31224); assay: Thermal shift assay with CPM dye; parameters: species or system E. coli; settings: AcrB vs apo-protein; > 1°C implies binding
T1 construct: Full length acrB gene was amplified from E. coli; BW25113; His-tag (C); made in house; host or cells: E. coli C43(DE3), plasmid pET21a
T1 sequence (P31224 whole entry): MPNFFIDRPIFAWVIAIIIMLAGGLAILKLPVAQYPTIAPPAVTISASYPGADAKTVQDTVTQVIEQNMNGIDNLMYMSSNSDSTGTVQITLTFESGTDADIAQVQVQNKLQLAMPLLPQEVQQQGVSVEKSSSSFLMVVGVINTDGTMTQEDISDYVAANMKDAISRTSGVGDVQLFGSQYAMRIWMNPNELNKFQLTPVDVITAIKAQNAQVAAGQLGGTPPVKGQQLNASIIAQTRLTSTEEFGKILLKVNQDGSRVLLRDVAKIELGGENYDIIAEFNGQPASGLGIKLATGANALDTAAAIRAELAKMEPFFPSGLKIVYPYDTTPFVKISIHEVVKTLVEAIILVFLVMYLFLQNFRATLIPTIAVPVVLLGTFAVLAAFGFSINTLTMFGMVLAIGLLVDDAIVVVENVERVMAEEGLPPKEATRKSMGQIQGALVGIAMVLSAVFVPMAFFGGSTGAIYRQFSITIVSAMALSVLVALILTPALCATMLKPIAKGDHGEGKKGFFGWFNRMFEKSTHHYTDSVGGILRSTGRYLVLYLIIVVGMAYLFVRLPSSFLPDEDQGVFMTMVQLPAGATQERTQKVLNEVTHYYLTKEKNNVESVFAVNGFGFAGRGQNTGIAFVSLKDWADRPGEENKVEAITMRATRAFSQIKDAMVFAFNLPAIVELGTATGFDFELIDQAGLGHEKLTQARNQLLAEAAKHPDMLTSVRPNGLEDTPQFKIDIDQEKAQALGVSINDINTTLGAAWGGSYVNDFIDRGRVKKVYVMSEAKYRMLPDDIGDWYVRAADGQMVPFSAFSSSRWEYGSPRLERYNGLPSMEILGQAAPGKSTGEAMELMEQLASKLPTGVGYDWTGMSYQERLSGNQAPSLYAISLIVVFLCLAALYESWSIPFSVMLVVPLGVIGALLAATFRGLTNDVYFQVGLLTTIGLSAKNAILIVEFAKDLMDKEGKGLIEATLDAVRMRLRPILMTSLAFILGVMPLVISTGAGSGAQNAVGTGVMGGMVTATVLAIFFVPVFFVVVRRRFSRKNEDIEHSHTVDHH
Procedure: AcrB overexpression protocol is adopted from Du. et al.[31]. Full length acrB gene was amplified from E. coli. BW25113 using Forward Primer 5′-[…]-3′ Reverse Primer 5′-[…]-3′ and cloned into the plasmid pET21a. The resultant plasmid that would express AcrB with a C-terminal His-tag is transformed into E. coli strain C43(DE3). The cells are induced on reaching A600 = 0.6 and transferred to 18 °C. The culture is harvested by centrifugation and re-suspended in Buffer A (100 mM Sodium Phosphate, 100 mM NaCl, 10 mM Imidazole, pH = 7.4, 100 µg/ml protease inhibitor cocktail from Roche and 5 U/ml DNase I and 5 mg/ml lysozyme). The cells are lysed at 15000 psi using Emulsiflex and centrifuged at 8000 g for removing cell debris. The membrane is isolated by centrifuging the resultant supernatant at 125000 g (see Coomassie stained SDS-PAGE of the purified protein Figure S9). Membrane solubilisation is done using Buffer A and 1.5% DDM (n-Dodecyl-β-D-Maltoside). Ni-NTA chromatography is used to purify the His-tagged protein and eluted in Buffer A with 300 mM Imidazole and 1.5% DDM.
The assay is performed according to protocols established elsewhere. CPM (N- [4-(7-diethylamino-4-methyl-3-coumarinyl) phenyl] maleimide) is a thiol specific fluorochrome (Excitation 387 nm, Emission 463 nm) and is non-fluorescent in an unbound state. The proteins, on thermal unfolding exposes cysteines allowing the CPM to bind and fluoresce. […]. The thermal denaturation is performed in a fluorimeter that is heated from 25 to 90 °C at a ramp rate of 1 °C/min. The Tm is calculated by analysing the melting profiles using Boltzmann Sigmoid function (GraphPad Prism) and ∆Tm is calculated by measuring the difference between the Tm of inhibitor bound protein and the apo-protein.

[2] = system: E. coli clinical isolates; assay: MIC on panel of E. coli clinical isolates; format: cell-based
[3] = system: E. coli ∆nfsA; assay: microbe, parasite or virus in culture; format: cell-based; settings: Escherichia coli, read-out: MIC ∆nfsA
Procedure: (§1) To assess the biological relevance of the interacting protein and establish the link between nitroreductases to the antibacterial activity of NTC compounds, single (ΔnfsA or ΔnfsB) and double knockouts (ΔnfsA & ΔnfsB) of nitroreductases were generated by phage transduction using strains from the Keio collection.
(§2) The inoculum used for all the experiments is derived from a single seed lot that is maintained as glycerol stocks at −80 °C and are sub cultured on LB plate for isolated colonies. Single colony of each strain is grown in M9 medium. All test compound stocks and dilutions are prepared in DMSO. Serial two-fold dilutions of compounds are prepared separately, with the concentrations ranging from 2 mg/mL to 0.015 mg/mL. To 150 µl (3–7 × 10^5 CFU/ml) of bacterial culture in 96 well microtitre plates, 3 μL compound from each of the dilutions is added to respective wells to obtain final concentrations ranging from 40 µg/mL to 0.3 µg/mL of the test compounds. Media control, culture control and appropriate reference drug controls are included. […] Growth is monitored by checking absorbance at 600 nm (A600). […] The samples from MIC and above concentrations are plated for MBC (Minimum Bactericidal Concentration). The samples are diluted 1:10 and plated on LB agar plates. […] The killing kinetics is determined by enumerating survivors at various time points following compound exposure. E. coli cells (~10^7 CFU/ml; A600 of 0.1) are treated with various concentrations (40 µg/mL to 0.3 µg/mL) of compounds in a 96-well microtitre plate. At various time intervals (0 to 8 h), 30 μl volumes of treated cultures are serially diluted and plated on LB agar plates. […] Data is expressed as the log10 CFU for each drug treatment.

[4] = system: E. coli ∆nfsA + ∆nfsB; assay: microbe, parasite or virus in culture; format: cell-based
Procedure: as §1, §2

## COc1cc(-c2csc(NC(=O)c3ccc([N+](=O)[O-])s3)n2)ccc1Cl [compound 20, N-(4-(4-chloro-3-methoxyphenyl)thiazol-2-yl)-5-nitrothiophene-2-carboxamide]
[1]
  ∆Tm: 1.86 °C and < 2 °C
[2]; 75 E.coli clinical isolates
  MIC Range: 0.6 to 10 µg/mL
[2]; Escherichia coli, 75 E.coli clinical isolates, 50% clinical isolates
  MIC50: 5 µg/mL (≈ 12.6 µM)
[2]; Escherichia coli, 75 E.coli clinical isolates, 90% clinical isolates
  MIC90: 10 µg/mL (≈ 25.3 µM)
[2]; strain SEC001
  MIC: 8 µg/mL (≈ 20.2 µM)
[2]; strain SEC002
  MIC: 8 µg/mL (≈ 20.2 µM)
[2]; strain SEC003
  MIC: 8 µg/mL (≈ 20.2 µM)
[2]; strain SEC004
  MIC: 8 µg/mL (≈ 20.2 µM)
[2]; strain SEC005
  MIC: 8 µg/mL (≈ 20.2 µM)
[2]; strain SEC006
  MIC: 8 µg/mL (≈ 20.2 µM)
[2]; strain SEC007
  MIC: 8 µg/mL (≈ 20.2 µM)
[2]; strain SEC008
  MIC: 8 µg/mL (≈ 20.2 µM)
[2]; strain SEC011
  MIC: 8 µg/mL (≈ 20.2 µM)
[2]; strain SEC012
  MIC: 2 µg/mL (≈ 5.05 µM)
[2]; strain SEC013
  MIC: 8 µg/mL (≈ 20.2 µM)
[2]; strain SEC014
  MIC: 8 µg/mL (≈ 20.2 µM)
[2]; strain SEC015
  MIC: 8 µg/mL (≈ 20.2 µM)
[2]; strain SEC016
  MIC: 2 µg/mL (≈ 5.05 µM)
[2]; strain SEC017
  MIC: 0.06 µg/mL (≈ 0.152 µM)
[2]; strain SEC018
  MIC: 1 µg/mL (≈ 2.53 µM)
[2]; strain SEC019
  MIC: 2 µg/mL (≈ 5.05 µM)
[2]; strain SEC020
  MIC: 8 µg/mL (≈ 20.2 µM)
[2]; strain SEC021
  MIC: 1 µg/mL (≈ 2.53 µM)
[2]; strain SEC022
  MIC: 4 µg/mL (≈ 10.1 µM)
[2]; strain SEC023
  MIC: 8 µg/mL (≈ 20.2 µM)
[2]; strain SEC024
  MIC: 8 µg/mL (≈ 20.2 µM)
[2]; strain SEC025
  MIC: 4 µg/mL (≈ 10.1 µM)
[2]; strain SEC026
  MIC: 8 µg/mL (≈ 20.2 µM)
[2]; strain SEC028
  MIC: 1 µg/mL (≈ 2.53 µM)
[2]; strain SEC029
  MIC: 2 µg/mL (≈ 5.05 µM)
[2]; strain SEC031
  MIC: 1 µg/mL (≈ 2.53 µM)
[2]; strain SEC032
  MIC: 8 µg/mL (≈ 20.2 µM)
[2]; strain SEC033
  MIC: 2 µg/mL (≈ 5.05 µM)
[2]; strain SEC034
  MIC: 8 µg/mL (≈ 20.2 µM)
[2]; strain SEC035
  MIC: 8 µg/mL (≈ 20.2 µM)
[2]; strain SEC036
  MIC: 8 µg/mL (≈ 20.2 µM)
[2]; strain SEC037
  MIC: 1 µg/mL (≈ 2.53 µM)
[2]; strain SEC038
  MIC: 0.25 µg/mL (≈ 0.632 µM)
[2]; strain SEC039
  MIC: 8 µg/mL (≈ 20.2 µM)
[2]; strain SEC040
  MIC: 2 µg/mL (≈ 5.05 µM)
[2]; strain SEC041
  MIC: 8 µg/mL (≈ 20.2 µM)
[2]; strain SEC042
  MIC: 8 µg/mL (≈ 20.2 µM)
[2]; strain SEC043
  MIC: 8 µg/mL (≈ 20.2 µM)
[2]; strain SEC044
  MIC: 8 µg/mL (≈ 20.2 µM)
[2]; strain SEC045
  MIC: 2 µg/mL (≈ 5.05 µM)
[2]; strain SEC046
  MIC: 8 µg/mL (≈ 20.2 µM)
[2]; strain SEC047
  MIC: 0.25 µg/mL (≈ 0.632 µM)
[2]; strain SEC048
  MIC: 8 µg/mL (≈ 20.2 µM)
[2]; strain SEC049
  MIC: 8 µg/mL (≈ 20.2 µM)
[2]; strain SEC050
  MIC: 8 µg/mL (≈ 20.2 µM)
[2]; strain SEC051
  MIC: 8 µg/mL (≈ 20.2 µM)
[2]; strain SEC052
  MIC: 1 µg/mL (≈ 2.53 µM)
[2]; strain SEC053
  MIC: 2 µg/mL (≈ 5.05 µM)
[2]; strain SEC054
  MIC: 2 µg/mL (≈ 5.05 µM)
[2]; strain SEC055
  MIC: 2 µg/mL (≈ 5.05 µM)
[2]; strain SEC057
  MIC: 8 µg/mL (≈ 20.2 µM)
[2]; strain SEC058
  MIC: 8 µg/mL (≈ 20.2 µM)
[2]; strain SEC059
  MIC: 2 µg/mL (≈ 5.05 µM)
[2]; strain SEC060
  MIC: 8 µg/mL (≈ 20.2 µM)
[2]; strain SEC061
  MIC: 4 µg/mL (≈ 10.1 µM)
[2]; strain SEC062
  MIC: 1 µg/mL (≈ 2.53 µM)
[2]; strain SEC063
  MIC: 2 µg/mL (≈ 5.05 µM)
[2]; strain SEC064
  MIC: 8 µg/mL (≈ 20.2 µM)
[2]; strain SEC065
  MIC: 2 µg/mL (≈ 5.05 µM)
[2]; strain SEC067
  MIC: 2 µg/mL (≈ 5.05 µM)
[2]; strain SEC068
  MIC: 8 µg/mL (≈ 20.2 µM)
[2]; strain SEC069
  MIC: 8 µg/mL (≈ 20.2 µM)
[2]; strain SEC070
  MIC: 8 µg/mL (≈ 20.2 µM)
[2]; strain SEC071
  MIC: 1 µg/mL (≈ 2.53 µM)
[2]; strain SEC072
  MIC: 4 µg/mL (≈ 10.1 µM)
[2]; strain SEC073
  MIC: 8 µg/mL (≈ 20.2 µM)
[2]; strain SEC074
  MIC: 8 µg/mL (≈ 20.2 µM)
[2]; strain SEC075
  MIC: 4 µg/mL (≈ 10.1 µM)
[2]; strain SEC076
  MIC: 4 µg/mL (≈ 10.1 µM)
[2]; strain SEC077
  MIC: 2 µg/mL (≈ 5.05 µM)
[2]; strain SEC078
  MIC: 4 µg/mL (≈ 10.1 µM)
[2]; strain SEC079
  MIC: 2 µg/mL (≈ 5.05 µM)
[2]; strain SEC080
  MIC: 4 µg/mL (≈ 10.1 µM)
[3]
  MIC: 0.6 µg/mL (≈ 1.52 µM)
[4]; Escherichia coli, read-out: MIC ∆nfsA + ∆nfsB
  MIC: > 40 µg/mL
[4]; ΔnfsA and ΔnfsB double knockout strain
  antibacterial activity in double knockout (in words): completely inactive
